The text below walks through data of paper PMC8915576 (Frontiers in Pain Research, 2021).

As usually defined, the IC50 is the concentration needed to halve the response being measured. The EC50 is the midpoint of the concentration-response curve.

For series [1], the system named is MOPr-VACC inhibition in dorsal root ganglia (DRG) neurons. Description: cells. The series is classed as cell-based, mouse. As to conditions: for Emax: read-out: Emax (% inhibition), VACC inhibition; for IC50: read-out: IC50, VACC inhibition.
Series [2] concerns MOPr-VACC inhibition in DRG neurons. In kind it is cell-based, mouse.
The subject of a further series is VACCs in DRG neurons. Description: Voltage-dependent component of agonist-VACC inhibition (high-voltage pre-pulse). The series is classed as cell-based, mouse. As to conditions: normalized to each agonist's inhibition.
Series [3] concerns the target MOPr (mMOR-Venus) / Gαi-luciferase (Mus musculus, UniProt P42866). Description: cell-based. In kind it is cell-based.
Series [4] addresses MOPr (mMOR-Venus) / βarr2-luciferase (Mus musculus, UniProt P42866). The series can be described thus: cell-based.
Series [5] has as its target MOPr (mMOR-Venus) / βarr1-luciferase (Mus musculus, UniProt P42866). The series can be described thus: cell-based. The series is classed as cell-based.
Another series deals with T1, MOPr (Mus musculus, UniProt P42866).
T1 construct: expressed in transfected cells; host or cells: HEK293
T1 sequence (P42866 whole entry): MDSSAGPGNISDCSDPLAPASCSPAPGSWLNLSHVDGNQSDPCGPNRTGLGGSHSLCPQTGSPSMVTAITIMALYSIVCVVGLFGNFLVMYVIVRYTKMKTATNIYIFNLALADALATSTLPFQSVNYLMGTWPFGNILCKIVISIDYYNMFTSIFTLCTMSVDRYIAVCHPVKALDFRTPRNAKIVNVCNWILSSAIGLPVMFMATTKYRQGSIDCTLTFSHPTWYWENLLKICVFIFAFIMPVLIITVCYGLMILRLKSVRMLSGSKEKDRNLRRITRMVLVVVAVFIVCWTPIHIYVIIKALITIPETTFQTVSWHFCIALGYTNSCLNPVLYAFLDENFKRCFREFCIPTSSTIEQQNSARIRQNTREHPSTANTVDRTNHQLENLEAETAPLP
In kind it is cell-based.

The target in series [6] is FAP-tagged MOPr in HEK cells (Homo sapiens, UniProt P35372). The series can be described thus: cell-based. In kind it is cell-based. Conditions: for Emax: Emax (% background), internalization.
Chain of FAP-tagged MOPr in HEK cells (P35372 whole entry): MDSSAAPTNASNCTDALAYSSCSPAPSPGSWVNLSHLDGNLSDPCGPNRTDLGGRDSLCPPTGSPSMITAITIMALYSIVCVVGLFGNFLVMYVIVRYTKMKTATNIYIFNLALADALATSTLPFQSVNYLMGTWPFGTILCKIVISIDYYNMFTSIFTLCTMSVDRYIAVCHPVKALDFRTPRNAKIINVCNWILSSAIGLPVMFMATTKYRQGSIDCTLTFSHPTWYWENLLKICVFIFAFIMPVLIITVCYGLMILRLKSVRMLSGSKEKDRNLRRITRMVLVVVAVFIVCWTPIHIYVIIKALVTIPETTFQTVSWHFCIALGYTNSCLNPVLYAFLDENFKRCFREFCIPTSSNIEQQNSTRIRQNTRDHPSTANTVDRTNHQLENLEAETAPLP
Series [7] deals with T2, MOR (recombinant human receptor) (Homo sapiens, UniProt P35372).
T2 construct: host or cells: CHO-K1 membranes
T2 sequence (P35372 whole entry): as above
In kind it is binding. Conditions: calculated as t1/2 = 0.69/koff.

The subject of series [8] is VACCs in DRG neurons lacking βarr1. The series can be described thus: VACC inhibition in DRG neurons of βarr1-knockout mice. In kind it is cell-based, mouse. As to conditions: βarr1-knockout vs WT DRG neurons; NKTR-181 30 μM.
Series [9] relates to carrageenan-induced thermal hyperalgesia. Description: Thermal withdrawal thresholds (Hargreaves) after i.pl. carrageenan. The series is classed as in vivo, mouse.
The subject of another series is thermal nociception. The series can be described thus: Thermal withdrawal thresholds (Hargreaves) after i.pl. vehicle. In kind it is in vivo, mouse. As to conditions: 3 mg/kg i.pl., mice.
In another series the test system is drug preference. Description: Conditioned place preference in pain-naive mice. The series is classed as in vivo, mouse.
The subject of series [10] is carrageenan-induced place aversion. The series can be described thus: Carrageenan-induced conditioned place aversion. In kind it is in vivo, mouse. Conditions: 1 mg/kg i.pl., male mice.
The subject of another series is drug-seeking behavior. Description: Intravenous self-administration (IVSA), FR10 schedule. In kind it is in vivo, Sprague–Dawley rats. As to conditions: for number of reinforcers obtained vs saline: FR10, rats.
For series [11], the target named is Mu opioid receptor (MOPr) of the competitive binding assays (UniProt P42866).
Chain of Mu opioid receptor (MOPr) of the competitive binding assays (P42866 whole entry): as the sequence (P42866 whole entry) above
Series [12] has as its target T3, mMOR-Venus (mu opioid receptor, Venus-tagged) (mouse (from the label mMOR), UniProt P42866 1-398).
T3 construct: mu opioid receptor (MOPr), printed as mMOR; BRET acceptor; 'm' in mMOR is read as mouse; also called MOPr-venus; MOPr; source: HEK293, transfected (FuGENE 6), in live cells
The series can be described thus: FRET or BRET; live HEK293 cells co-transfected with mMOR-Venus (acceptor) and Renilla Luciferase8-tagged β-arrestin-1, β-arrestin-2 or Gαi (donor; Gαi with untagged Gβγ fusion); agonist added at 0 nM-100 μM (DAMGO, NKTR-181, oxycodone, morphine, fentanyl); coelenterazine h 4.5 μM; 30°C; netBRET as percent of the maximum DAMGO response, four-parameter fit. Conditions: partners not purified. Background: Bioluminescence resonance energy transfer reports proximity on the nanometre scale.

Where two headings read alike, the source gives them in different places.

Chain of MOPr (mMOR-Venus) / βarr2-luciferase (P32121 whole entry): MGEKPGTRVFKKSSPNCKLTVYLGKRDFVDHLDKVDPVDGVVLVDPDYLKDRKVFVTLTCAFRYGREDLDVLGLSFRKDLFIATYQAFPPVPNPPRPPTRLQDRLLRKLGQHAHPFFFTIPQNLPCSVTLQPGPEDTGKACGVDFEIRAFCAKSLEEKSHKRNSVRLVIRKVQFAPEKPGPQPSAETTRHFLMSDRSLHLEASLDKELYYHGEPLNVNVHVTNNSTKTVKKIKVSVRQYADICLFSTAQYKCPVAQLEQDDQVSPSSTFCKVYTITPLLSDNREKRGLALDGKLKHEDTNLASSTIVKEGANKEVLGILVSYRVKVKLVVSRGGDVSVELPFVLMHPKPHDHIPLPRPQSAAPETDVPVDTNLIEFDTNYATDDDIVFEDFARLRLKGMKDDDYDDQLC
Chain of MOPr (mMOR-Venus) / βarr2-luciferase (P42866 whole entry): as the sequence (P42866 whole entry) above
T3 sequence (P42866 whole entry): as above
Chain of MOPr (mMOR-Venus) / βarr1-luciferase (P42866 whole entry, one chain of several): as the sequence (P42866 whole entry) above
Chain of MOPr (mMOR-Venus) / Gαi-luciferase (P63096 whole entry): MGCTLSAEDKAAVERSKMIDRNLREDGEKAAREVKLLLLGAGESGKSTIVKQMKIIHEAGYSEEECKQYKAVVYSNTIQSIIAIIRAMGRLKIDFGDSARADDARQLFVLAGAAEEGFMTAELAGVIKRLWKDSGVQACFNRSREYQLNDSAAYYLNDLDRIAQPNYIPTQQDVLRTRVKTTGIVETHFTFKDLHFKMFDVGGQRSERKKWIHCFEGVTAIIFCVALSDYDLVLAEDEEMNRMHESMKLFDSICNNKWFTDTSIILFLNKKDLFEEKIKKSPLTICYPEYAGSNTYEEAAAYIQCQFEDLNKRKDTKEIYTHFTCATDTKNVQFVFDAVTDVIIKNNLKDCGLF
Chain of MOPr (mMOR-Venus) / Gαi-luciferase (P42866 whole entry): as the sequence (P42866 whole entry) above
Chain of MOPr (mMOR-Venus) / Gαi-luciferase (P59768 whole entry, further chain): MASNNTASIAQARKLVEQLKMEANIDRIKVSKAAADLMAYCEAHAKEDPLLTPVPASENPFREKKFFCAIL
Chain of MOPr (mMOR-Venus) / Gαi-luciferase (P62873 whole entry, further chain): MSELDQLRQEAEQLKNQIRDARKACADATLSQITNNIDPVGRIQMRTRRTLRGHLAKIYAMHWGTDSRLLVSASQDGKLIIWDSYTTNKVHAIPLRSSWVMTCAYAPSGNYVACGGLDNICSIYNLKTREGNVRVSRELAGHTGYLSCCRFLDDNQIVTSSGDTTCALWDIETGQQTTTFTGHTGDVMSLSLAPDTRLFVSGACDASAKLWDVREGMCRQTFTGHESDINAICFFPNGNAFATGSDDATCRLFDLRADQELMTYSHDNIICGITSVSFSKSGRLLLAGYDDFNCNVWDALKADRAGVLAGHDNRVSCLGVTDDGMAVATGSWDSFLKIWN

As to `CN1CC[C@]23c4c5ccc(O)c4O[C@H]2[C@@H](O)C=C[C@H]3[C@H]1C5` [Morphine, morphine], the Emax in series [1] (Mus musculus, DRG neuron) was 33 ± 6%. Besides, in [2], the “rapid desensitization (loss of VACC inhibition)” value is reported as “greater desensitization than NKTR-181”. In addition, the “voltage-dependent component of VACC inhibition” value with VACCs in DRG neurons is “predominantly inhibit VACCs by a voltage-dependent mechanism”.

On to `COc1ccc2c3c1O[C@H]1C(=O)CC[C@@]4(O)[C@@H](C2)N(C)CC[C@]314` [Oxycodone, oxycodone], for which, in series [1] (Mus musculus, DRG neuron), the Emax came to 34 ± 10% and the IC50 amounted to 1700 nM. For the same molecule, in series [3], the midpoint of the response, the EC50, lay at 355 nM and the “σ (transduction coefficient), Gαi recruitment” value worked out at 0.006 ± 0.07. Further, the Emax in series [3] (HEK293, read-out: Emax, Gαi recruitment) amounted to 62.5 ± 0.9%. Also, in [4], the midpoint of the response, the EC50, lay at 100 nM and the “σ (transduction coefficient), β-arr2 recruitment” value was −0.17 ± 0.05. In series [5], the EC50 was 389 nM and the “σ (transduction coefficient), β-arr1 recruitment” value turned out to be 0.07 ± 0.05. For the same molecule, the Emax in series [5] (HEK293, read-out: Emax, β-arr1 recruitment) came out at 63.9 ± 0.8%. For the same molecule, on MOPr, the “Bias factor Gαi vs βarr1” value is on record as −0.14 ± 0.07, the “Bias factor Gαi vs βarr2” value is 0.17 ± 0.08 and the “Bias factor βarr1 vs βarr2” value was found to be 0.32 ± 0.06. Besides, the “MOPr internalization, dose-dependence and comparison” value in series [6] is “did not result in a dose-dependent effect and could not be curve-fitted at any timepoint”. For the same molecule, the “dissociation half-life t1/2” value in series [7] is listed as 1.25 min. For the same molecule, in [2], the “rapid desensitization (loss of VACC inhibition)” value is reported as “limited desensitization”. Further, in the series on VACCs in DRG neurons, the “voltage-dependent component of VACC inhibition” value is “predominantly inhibit VACCs by a voltage-dependent mechanism”. Moreover, the “requirement of βarr1 for full VACC inhibition” value in series [8] is “require βarr1 to obtain full VACC inhibition”. In addition, the “reversal of carrageenan-induced hyperalgesia” value in series [9] (1 mg/kg i.pl., mice) is given as “did not reverse carrageenan-induced hyperalgesia”. In addition, in series [9] (3 mg/kg i.pl., mice), the “thermal withdrawal thresholds following i.pl. carrageenan” value is on record as “increased withdrawal thresholds following i.pl. carrageenan”. Further, the “time to reach peak levels of effect” value in series [9] (antinociception / anti-hyperalgesia, carrageenan model, 10 min was the earliest timepoint measured) worked out at 10 min. Moreover, in series [9] (higher dose (oxycodone 3 mg/kg, NKTR-181 100 mg/kg), male vs female mice), the “sex difference in anti-hyperalgesia” value is reported as “No sex differences were evident”. Besides, in the series with thermal nociception, the “thermal withdrawal thresholds following i.pl. vehicle” value is “increased withdrawal thresholds following i.pl. vehicle”. In the series on drug preference (1 mg/kg i.pl.), the conditioned place preference entry is “did not produce a place preference in either male or female mice”. Moreover, the conditioned place preference result in the series with drug preference (3 mg/kg i.pl.) is given as “produced a place preference in both sexes”. For the same molecule, the carrageenan-induced place aversion entry in series [10] is “prevented place aversion”. Further, in the series on drug-seeking behavior (0.1 mg/kg/infusion), the “number of reinforcers obtained vs saline” value was “no difference”. Besides, the “number of reinforcers obtained vs saline” value in the series on drug-seeking behavior (0.01 and 0.032 mg/kg/infusion) is recorded as “higher”. For the same molecule, in the series on drug-seeking behavior (across the three doses of each drug, rats), the “total amount of drug infused over the hour-long session” value was “increase in the total amount of drug infused across all doses”.

As for `C[C@@H](NC(=O)[C@@H](N)Cc1ccc(O)cc1)C(=O)NCC(=O)N(C)[C@@H](Cc1ccccc1)C(=O)NCCO` [DAMGO, [D-Ala^2, N-MePhe^4, Gly-ol]-enkephalin], in series [1], the “Emax (% inhibition), VACC inhibition” value came to 41 ± 4 % inhibition and the IC50 is 228 nM. Further, the “σ (transduction coefficient), Gαi recruitment” value in series [3] is given as 0. In [4], the “σ (transduction coefficient), β-arr2 recruitment” value was determined as 0. In series [5], the “σ (transduction coefficient), β-arr1 recruitment” value was 0. At MOPr, the “Bias factor Gαi vs βarr1” value is “Unbiased”, the “Bias factor Gαi vs βarr2” value was “Unbiased” and the “Bias factor βarr1 vs βarr2” value is “Unbiased”. Also, in series [6] (HEK293, read-out: 30 min), the Emax worked out at 78 ± 6%. The Emax in series [6] (HEK293, read-out: 60 min) came out at 72 ± 7%. Besides, the “rapid desensitization (loss of VACC inhibition)” value in series [2] is “greater desensitization than NKTR-181”. For the same molecule, the “voltage-dependent component of VACC inhibition” value in the series with VACCs in DRG neurons was “predominantly inhibit VACCs by a voltage-dependent mechanism”.

With “[D-Ala^2, N-MePhe^4, Gly-ol]-enkephalin (peptide)”, in series [11], the Emax (% inhibition) of VACCs in cultured adult mouse DRG neurons, whole-cell patch clamp amounted to 41 % inhibition and the IC50 of inhibition of voltage-activated calcium channel currents (VACCs) in cultured adult mouse DRG neurons, whole-cell patch clamp was 228 nM.

B1: β-arrestin-1-Renilla Luciferase8 (natural protein, UniProt P49407 1-418, looked up)
chain: MGDKGTRVFKKASPNGKLTVYLGKRDFVDHIDLVDPVDGVVLVDPEYLKERRVYVTLTCAFRYGREDLDVLGLTFRKDLFVANVQSFPPAPEDKKPLTRLQERLIKKLGEHAYPFTFEIPPNLPCSVTLQPGPEDTGKACGVDYEVKAFCAENLEEKIHKRNSVRLVIRKVQYAPERPGPQPTAETTRQFLMSDKPLHLEASLDKEIYYHGEPISVNVHVTNNTNKTVKKIKISVRQYADICLFNTAQYKCPVAMEEADDTVAPSSTFCKVYTLTPFLANNREKRGLALDGKLKHEDTNLASSTLLREGANREILGIIVSYKVKVKLVVSRGGLLGDLASSDVAVELPFTLMHPKPKEEPPHREVPENETPVDTNLIELDTNDDDIVFEDFARQRLKGMKDDKEEEEDGTGSPQLNNR
notes: β-arrestin-1; BRET donor; also called βarr1; β-arr1; source: HEK293, transfected (FuGENE 6), in live cells
Regarding B1, in series [12], the “LogEC50 of the agonist DAMGO for the recruitment” value was -6.94 ± 0.09 log M, the “LogEC50 of the agonist NKTR-181 for the recruitment” value was -6.45 ± 0.12 log M, the “LogEC50 of the agonist fentanyl for the recruitment” value is -8 ± 0.12 log M and the “LogEC50 of the agonist morphine for the recruitment” value is -6.3 ± 0.18 log M. Further, in series [12], the “LogEC50 of the agonist oxycodone for the recruitment” value was -6.41 ± 0.12 log M.
